Columns and labels:
[1] = tested on: CD1 female mouse brain lipidome; experiment: Brain-region lipid levels (HPLC/MS/MS lipidomics) 2 h after single i.p. 3 mg/kg CP 55,940 vs vehicle; format: in vivo
Protocol: The Bloomington Institutional Animal Care and Use Committee of Indiana University reviewed and approved the animal procedures. Female mice from the CD1 strain were utilized to match our study examining THC’s effects on the brain lipidome ([Leishman et al., 2018]). Mice were given a single i.p. injection of either 3 mg/kg CP or 1:1:18 cremophor:ethanol:saline vehicle (please refer to the section “3 mg/kg CP Is Relevant for Synthetic Cannabinoid Abuse and Has Stronger Effects on the Female Mouse Brain Lipidome During Adolescence” for a justification of dose and use of female mice). Three different age groups were given injections: PND 35 and PND 50 adolescents, and adult mice (PND 113). At least eight mice in each age group received CP and at least eight received vehicle. Matching the THC study time course ([Leishman et al., 2018]), mice were sacrificed via rapid decapitation 2 h after injection. Brains were immediately removed and flash-frozen in liquid nitrogen, and then stored at -80°C until dissections were performed. Brains were dissected on an ice-cold dissection plate into the following regions: STR, HIPP, CER, THAL, CTX, HYP, MID, and STEM. These abbreviations for these brain areas will be used exclusively when discussing the results generated by these specific dissections. Each dissected area was immediately placed in liquid nitrogen and then stored at -80°C until used for lipid extraction.
Tissue extracts were performed as previously described ([Bradshaw et al., 2006]; [Stuart et al., 2013]; [Raboune et al., 2014]; [Leishman et al., 2016a],[b], [2017], [2018]). First, samples were shock frozen in liquid nitrogen, weighed, and transferred to a centrifuge tube. The mass of the largest sample was multiplied by 50 to determine how many milliliters of HPLC-grade methanol (Fisher, Fair Lawn, NJ, United States) to add. Then, samples were spiked with 500 pmol deuterium-labeled NAGly (d8NAGly; Cayman Chemical, Ann Arbor, MI, United States). Samples were placed on ice in darkness for 2 h then individually homogenized and centrifuged at 19,000 × g for 20 min at 20°C. Supernatants were diluted with HPLC water (purified in house) to make a solution of 75% water, 25% supernatant. Lipids were partially purified on C18 solid phase extraction columns (Agilent, Palo Alto, CA, United States). A series of four elutions with 1.5 mL of 60%, 75%, 85%, and 100% methanol were collected ([Stuart et al., 2013]; [Leishman et al., 2016a],[b], [2018]).
As previously described ([Bradshaw et al., 2006]; [Tan et al., 2006]; [Smoum et al., 2010]; [Stuart et al., 2013]; [Tortoriello et al., 2013]; [Raboune et al., 2014]; [Leishman et al., 2016a],[b], [2017], [2018]), samples were analyzed using an Applied Biosystems API 3000 triple quadrupole mass spectrometer with electrospray ionization (Foster City, CA, United States). Using an Agilent XDB-C18 reversed phase analytical column and optimized mobile phase gradients, 20 μL from each elution were chromatographed. Two Shimadzu 10ADvp pumps (Columbia, MD, United States) provided the pressure for gradient elution. Mobile phase A: 20% methanol, 80% water (v/v) and 1 mM ammonium acetate (Sigma, St. Louis, MO, United States). Mobile phase B: 100% methanol, 1 mM ammonium acetate. Every method run began with 0% mobile phase B, reached 100% mobile phase B flowing at 0.2 mL/min, and gradually returned to 0% mobile phase B.
This screening library will be referred to as the lipidome when discussing data from this study. HPLC/MS/MS data were analyzed using Analyst software (Applied Biosystems) ([Bradshaw et al., 2006]; [Tan et al., 2006]; [Stuart et al., 2013]; [Tortoriello et al., 2013]; [Raboune et al., 2014]; [Leishman et al., 2016a],[b], [2017], [2018]). Chromatograms (Supplementary Figure 3) were generated by determining the retention time of analytes from the analytical column with a [M-1] or [M+1] parent peak and a fragmentation peak corresponding to the programmed values. […]

CB1 = conditions: cited from earlier work

Compound: CCCCCCC(C)(C)c1ccc([C@@H]2C[C@H](O)CC[C@H]2CCCO)c(O)c1 [CP 55,940]
- PGF2α level, Mean ([1]; adult cortex, 3mg/kg CP 55,940): 2.77E-10
- PGF2α level, Mean ([1]; adult female mice, brainstem, 3mg/kg CP 55,940): 1.69E-10
- PGF2α level, Mean ([1]; adult hypothalamus, 3 mg/kg CP 55,940): 2.18E-10
- PGF2α level, Mean ([1]; adult midbrain, 3mg/kg CP 55,940): 2.91E-10
- PGF2α level, Mean ([1]; brainstem, PND 50, 3 mg/kg CP 55,940): 1.26E-10
- PGF2α level, Mean ([1]; cerebellum, WT adult female mice, 3mg/kg CP 55,940): 2.22E-10
- PGF2α level, Mean ([1]; cerebellum, PND35 WT female mice, 3mg/kg CP 55,940): 3.05E-10
- PGF2α level, Mean ([1]; cortex, PND 50 female mice, 3mg/kg CP 55,940): 1.71E-10
- PGF2α level, Mean ([1]; cortex, PND 35 adolescent female mice, 3 mg/kg CP 55,940): 3.11E-10
- PGF2α level, Mean ([1]; hippocampus, adult, 3 mg/kg CP 55,940): 3.25E-10
- PGF2α level, Mean ([1]; hippocampus, PND 35 WT female mice, 3mg/kg CP 55,940): 9.18E-10
- PGF2α level, Mean ([1]; hypothalamus, PND 50 female mice, 3mg/kg CP 55,940): 1.35E-10
- PGF2α level, Mean ([1]; midbrain, PND 50 female mice, 3mg/kg CP 55,940): 1.57E-10
- PGF2α level, Mean ([1]; striatum, adult, 3 mg/kg CP 55,940): 2.43E-10
- PGF2α level, Mean ([1]; thalamus, WT adult female mice, 3mg/kg CP 55,940): 2.22E-10
- PGF2α level, Mean ([1]; thalamus, PND 35 adolescent female mice, 3 mg/kg CP 55,940): 5.11E-10
- potency relative to THC (CB1; cannabinoid receptors, ref Showalter et al., 1996, Besnard et al., 2012): ~10 fold
- EC50 (CB1; ref Brents et al., 2011, read-out: EC50, stimulated G-protein binding at CB1): 3.4 nM
